Values quoted from earlier work as cited in publication PMC13207833, “Coumarin–Amino Acid Hybrids Used as Possible Multifactorial Anti-Inflammatory Agents” (International Journal of Molecular Sciences, 2026).
pIC50: −log10 of the molar value.

Molecular target: T1, soybean lipoxygenase (SLOX-1) (Glycine max, UniProt P08170)
T1 construct: purchased Merck and Sigma-Aldrich
T1 sequence (P08170 1-839): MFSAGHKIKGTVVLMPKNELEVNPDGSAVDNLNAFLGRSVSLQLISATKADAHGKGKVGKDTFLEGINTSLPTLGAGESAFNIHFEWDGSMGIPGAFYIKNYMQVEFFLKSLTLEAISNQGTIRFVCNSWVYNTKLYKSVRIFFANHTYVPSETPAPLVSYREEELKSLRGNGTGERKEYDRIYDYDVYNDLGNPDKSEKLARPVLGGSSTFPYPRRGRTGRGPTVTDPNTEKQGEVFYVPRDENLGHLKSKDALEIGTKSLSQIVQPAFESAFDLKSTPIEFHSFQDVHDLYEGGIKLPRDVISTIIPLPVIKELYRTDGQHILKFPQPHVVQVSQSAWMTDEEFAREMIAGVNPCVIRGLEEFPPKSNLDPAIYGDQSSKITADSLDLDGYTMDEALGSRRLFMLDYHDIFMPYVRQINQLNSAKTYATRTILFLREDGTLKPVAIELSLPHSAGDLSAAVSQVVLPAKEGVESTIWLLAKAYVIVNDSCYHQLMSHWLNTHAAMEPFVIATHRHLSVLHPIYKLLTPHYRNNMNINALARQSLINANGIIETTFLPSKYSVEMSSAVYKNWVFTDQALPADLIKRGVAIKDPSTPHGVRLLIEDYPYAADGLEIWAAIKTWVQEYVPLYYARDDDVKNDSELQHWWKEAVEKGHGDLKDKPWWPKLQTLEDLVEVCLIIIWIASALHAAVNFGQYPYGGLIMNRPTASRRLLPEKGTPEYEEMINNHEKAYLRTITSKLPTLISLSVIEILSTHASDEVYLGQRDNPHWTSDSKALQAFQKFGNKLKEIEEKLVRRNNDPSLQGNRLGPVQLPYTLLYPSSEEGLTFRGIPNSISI
Set-up: method as in PMID 29329232
Conditions: value from earlier paper of the group

Compound | pIC50
O=C(O)COc1ccc2ccc(=O)oc2c1 [Compound 3, 2-((2-oxo-2H-chromen-7-yl)oxy)acetic acid] | 4.00
O=C(O)COc1ccc2oc(=O)ccc2c1 [Compound 2, 2-((2-oxo-2H-chromen-6-yl)oxy)acetic acid] | 4.00
